31 molecules from ChEMBL document CHEMBL3045057, “2-D QSAR studies of steroidal natural products oleanic acid and their semisynthetic derivatives as potent protein tyrosine phosphatase 1B inhibitors” (Med Chem Res, 2012) can be followed below.

The assay deals with T1, Tyrosine-protein phosphatase non-receptor type 1 (Homo sapiens, UniProt P18031).
T1 sequence (P18031 whole entry): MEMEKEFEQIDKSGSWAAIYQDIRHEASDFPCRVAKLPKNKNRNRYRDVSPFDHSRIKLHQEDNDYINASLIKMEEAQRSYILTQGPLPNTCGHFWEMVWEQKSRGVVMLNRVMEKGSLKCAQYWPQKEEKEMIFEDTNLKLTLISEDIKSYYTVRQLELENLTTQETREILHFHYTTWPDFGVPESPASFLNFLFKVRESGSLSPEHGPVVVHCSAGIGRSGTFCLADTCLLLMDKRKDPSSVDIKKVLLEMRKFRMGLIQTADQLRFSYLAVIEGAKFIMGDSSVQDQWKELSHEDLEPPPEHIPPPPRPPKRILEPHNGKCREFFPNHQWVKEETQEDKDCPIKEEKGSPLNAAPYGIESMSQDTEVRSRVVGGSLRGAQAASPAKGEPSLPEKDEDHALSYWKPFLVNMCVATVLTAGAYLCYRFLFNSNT
Briefly: Inhibition of PTP1B (unknown origin).

For the molecule `CC1(C)CC[C@]2(C(=O)O)CC[C@]3(C)C(=CC[C@@H]4[C@@]5(C)CC[C@H](Cc6ccccc6)C(C)(C)[C@@H]5CC[C@]43C)[C@@H]2C1`, the IC50 is, setting by setting: (read-out: IC50) 2670 nM; (read-out: pIC50 (converted)) 2670 nM.
Consider `CC1(C)CC[C@]2(C(=O)O)CC[C@]3(C)C(=CC[C@@H]4[C@@]5(C)CC[C@H](Cc6ccccc6C(=O)O)C(C)(C)[C@@H]5CC[C@]43C)[C@@H]2C1`, for which the IC50 runs as follows: (read-out: IC50) 2720 nM; (read-out: pIC50 (converted)) 2720 nM.
For `CC1(C)CC[C@]2(CCCCC(=O)NC(Cc3ccccc3)C(=O)O)CC[C@]3(C)C(=CC[C@@H]4[C@@]5(C)CC[C@H](OCc6ccc(C(=O)O)cc6)C(C)(C)[C@@H]5CC[C@]43C)[C@@H]2C1` (some centres not stated), the IC50 is 150 nM (read-out: IC50) and 150 nM (read-out: pIC50 (converted)).
Turning to `COc1ccc(CC(NC(=O)C[C@]23CCC(C)(C)C[C@H]2C2=CC[C@@H]4[C@@]5(C)CC[C@H](O)C(C)(C)[C@@H]5CC[C@@]4(C)[C@]2(C)CC3)C(=O)O)cc1OC` (some centres not stated), the IC50 by setting is: (read-out: IC50) 820 nM; (read-out: pIC50 (converted)) 820 nM.
In the case of `COc1cc(CC(NC(=O)C[C@]23CCC(C)(C)C[C@H]2C2=CC[C@@H]4[C@@]5(C)CC[C@H](O)C(C)(C)[C@@H]5CC[C@@]4(C)[C@]2(C)CC3)C(=O)O)cc(OC)c1` (some centres not stated), the IC50 (read-out: IC50) is 630 nM and the IC50 (read-out: pIC50 (converted)) was 630 nM.
`Cc1ccccc1CC(NC(=O)C[C@]12CCC(C)(C)C[C@H]1C1=CC[C@@H]3[C@@]4(C)CC[C@H](O)C(C)(C)[C@@H]4CC[C@@]3(C)[C@]1(C)CC2)C(=O)O` (some centres not stated): the IC50 (read-out: IC50) stood at 550 nM and the IC50 (read-out: pIC50 (converted)) is 550 nM.
As to `Cc1ccc(CC(NC(=O)C[C@]23CCC(C)(C)C[C@H]2C2=CC[C@@H]4[C@@]5(C)CC[C@H](O)C(C)(C)[C@@H]5CC[C@@]4(C)[C@]2(C)CC3)C(=O)O)cc1` (some centres not stated), the IC50 runs as follows: (read-out: IC50) 650 nM; (read-out: pIC50 (converted)) 650 nM.
Turning to `COc1ccccc1CC(NC(=O)C[C@]12CCC(C)(C)C[C@H]1C1=CC[C@@H]3[C@@]4(C)CC[C@H](O)C(C)(C)[C@@H]4CC[C@@]3(C)[C@]1(C)CC2)C(=O)O` (some centres not stated), the IC50 was 530 nM (read-out: IC50) and 530 nM (read-out: pIC50 (converted)).
On to `COc1cccc(CC(NC(=O)C[C@]23CCC(C)(C)C[C@H]2C2=CC[C@@H]4[C@@]5(C)CC[C@H](O)C(C)(C)[C@@H]5CC[C@@]4(C)[C@]2(C)CC3)C(=O)O)c1` (some centres not stated), for which the IC50 runs as follows: (read-out: IC50) 520 nM; (read-out: pIC50 (converted)) 520 nM.
For `COc1ccc(CC(NC(=O)C[C@]23CCC(C)(C)C[C@H]2C2=CC[C@@H]4[C@@]5(C)CC[C@H](O)C(C)(C)[C@@H]5CC[C@@]4(C)[C@]2(C)CC3)C(=O)O)cc1` (some centres not stated), the IC50 was 600 nM (read-out: IC50) and 600 nM (read-out: pIC50 (converted)).
As to `CC1(C)CC[C@]2(CC(=O)NC(Cc3ccc4c(c3)OCO4)C(=O)O)CC[C@]3(C)C(=CC[C@@H]4[C@@]5(C)CC[C@H](O)C(C)(C)[C@@H]5CC[C@]43C)[C@@H]2C1` (some centres not stated), the IC50 reads like this: (read-out: IC50) 440 nM; (read-out: pIC50 (converted)) 440 nM.
Regarding `COc1cccc(CC(NC(=O)C[C@]23CCC(C)(C)C[C@H]2C2=CC[C@@H]4[C@@]5(C)CC[C@H](O)C(C)(C)[C@@H]5CC[C@@]4(C)[C@]2(C)CC3)C(=O)O)c1OC` (some centres not stated), the IC50 is 660 nM (read-out: IC50) and 660 nM (read-out: pIC50 (converted)).
Consider `CC1(C)CC[C@]2(C(=O)OCCCCCCCCCCCCC(=O)O)CC[C@]3(C)C(=CC[C@@H]4[C@@]5(C)CC[C@H](O)C(C)(C)[C@@H]5CC[C@]43C)[C@@H]2C1`, for which the IC50 is 590 nM (read-out: IC50) and 590 nM (read-out: pIC50 (converted)).
As to `CC1(C)CC[C@]2(CC(=O)NC(Cc3ccccc3)C(=O)O)CC[C@]3(C)C(=CC[C@@H]4[C@@]5(C)CC[C@H](O)C(C)(C)[C@@H]5CC[C@]43C)[C@@H]2C1` (some centres not stated), the IC50 is 570 nM (read-out: IC50) and 570 nM (read-out: pIC50 (converted)).
Turning to `CC1(C)CC[C@]2(CC(=O)NC(Cc3cnc[nH]3)C(=O)O)CC[C@]3(C)C(=CC[C@@H]4[C@@]5(C)CC[C@H](O)C(C)(C)[C@@H]5CC[C@]43C)[C@@H]2C1` (some centres not stated), the IC50 (read-out: IC50) turned out to be 4620 nM and the IC50 (read-out: pIC50 (converted)) was 4620 nM.
`CC1(C)CC[C@]2(CC(=O)NC(CC3=CCc4ccccc43)C(=O)O)CC[C@]3(C)C(=CC[C@@H]4[C@@]5(C)CC[C@H](O)C(C)(C)[C@@H]5CC[C@]43C)[C@@H]2C1` (some centres not stated): the IC50 runs as follows: (read-out: IC50) 590 nM; (read-out: pIC50 (converted)) 590 nM.
With `CSCCC(NC(=O)C[C@]12CCC(C)(C)C[C@H]1C1=CC[C@@H]3[C@@]4(C)CC[C@H](O)C(C)(C)[C@@H]4CC[C@@]3(C)[C@]1(C)CC2)C(=O)O` (some centres not stated), the IC50 runs as follows: (read-out: IC50) 550 nM; (read-out: pIC50 (converted)) 550 nM.
As to `CC1(C)CC[C@]2(CC(=O)NC(Cc3ccccc3Cl)C(=O)O)CC[C@]3(C)C(=CC[C@@H]4[C@@]5(C)CC[C@H](O)C(C)(C)[C@@H]5CC[C@]43C)[C@@H]2C1` (some centres not stated), the IC50 is, setting by setting: (read-out: IC50) 560 nM; (read-out: pIC50 (converted)) 560 nM.
Consider `CC1(C)CC[C@]2(CC(=O)NC(Cc3cccc(Cl)c3)C(=O)O)CC[C@]3(C)C(=CC[C@@H]4[C@@]5(C)CC[C@H](O)C(C)(C)[C@@H]5CC[C@]43C)[C@@H]2C1` (some centres not stated), for which the IC50 is 510 nM (read-out: IC50) and 510 nM (read-out: pIC50 (converted)).
Take `CC1(C)CC[C@]2(CC(=O)NC(Cc3ccc(Cl)cc3)C(=O)O)CC[C@]3(C)C(=CC[C@@H]4[C@@]5(C)CC[C@H](O)C(C)(C)[C@@H]5CC[C@]43C)[C@@H]2C1` (some centres not stated): the IC50 (read-out: IC50) came to 610 nM and the IC50 (read-out: pIC50 (converted)) is 610 nM.
For the molecule `CC1(C)CC[C@]2(CC(=O)NC(Cc3ccc(F)cc3)C(=O)O)CC[C@]3(C)C(=CC[C@@H]4[C@@]5(C)CC[C@H](O)C(C)(C)[C@@H]5CC[C@]43C)[C@@H]2C1` (some centres not stated), the IC50 is 570 nM (read-out: IC50) and 570 nM (read-out: pIC50 (converted)).
In the case of `CC1(C)CC[C@]2(CC(=O)NC(Cc3ccc([N+](=O)[O-])cc3)C(=O)O)CC[C@]3(C)C(=CC[C@@H]4[C@@]5(C)CC[C@H](O)C(C)(C)[C@@H]5CC[C@]43C)[C@@H]2C1` (some centres not stated), the IC50 is, setting by setting: (read-out: IC50) 450 nM; (read-out: pIC50 (converted)) 450 nM.
On to `CC1(C)CC[C@]2(C(=O)OCCC(=O)O)CC[C@]3(C)C(=CC[C@@H]4[C@@]5(C)CC[C@H](O)C(C)(C)[C@@H]5CC[C@]43C)[C@@H]2C1`, for which the IC50 is 2100 nM (read-out: IC50) and 2100 nM (read-out: pIC50 (converted)).
With `CC1(C)CC[C@]2(C(=O)OCCCCC(=O)O)CC[C@]3(C)C(=CC[C@@H]4[C@@]5(C)CC[C@H](O)C(C)(C)[C@@H]5CC[C@]43C)[C@@H]2C1`, the IC50 by setting is: (read-out: IC50) 1330 nM; (read-out: pIC50 (converted)) 1330 nM.
Consider `CC1(C)CC[C@]2(C(=O)OCCCCCCC(=O)O)CC[C@]3(C)C(=CC[C@@H]4[C@@]5(C)CC[C@H](O)C(C)(C)[C@@H]5CC[C@]43C)[C@@H]2C1`, for which the IC50 is, setting by setting: (read-out: IC50) 880 nM; (read-out: pIC50 (converted)) 880 nM.
Consider `CC1(C)CC[C@]2(C(=O)OCCCCCCCCC(=O)O)CC[C@]3(C)C(=CC[C@@H]4[C@@]5(C)CC[C@H](O)C(C)(C)[C@@H]5CC[C@]43C)[C@@H]2C1`, for which the IC50 runs as follows: (read-out: IC50) 780 nM; (read-out: pIC50 (converted)) 780 nM.
For the molecule `CC1(C)CC[C@]2(C(=O)OCCCCCCCCCCC(=O)O)CC[C@]3(C)C(=CC[C@@H]4[C@@]5(C)CC[C@H](O)C(C)(C)[C@@H]5CC[C@]43C)[C@@H]2C1`, the IC50 is 720 nM (read-out: IC50) and 720 nM (read-out: pIC50 (converted)).
For `CC1(C)CC[C@]2(C(=O)NC(Cc3ccccc3)C(=O)O)CC[C@]3(C)C(=CC[C@@H]4[C@@]5(C)CC[C@H](O)C(C)(C)[C@@H]5CC[C@]43C)[C@@H]2C1` (some centres not stated), the IC50 by setting is: (read-out: IC50) 3310 nM; (read-out: pIC50 (converted)) 3310 nM.
For `CC1(C)CC[C@]2(C(=O)NC(CCC(=O)O)C(=O)O)CC[C@]3(C)C(=CC[C@@H]4[C@@]5(C)CC[C@H](O)C(C)(C)[C@@H]5CC[C@]43C)[C@@H]2C1` (some centres not stated), the IC50 was 16400 nM (read-out: IC50) and 16400 nM (read-out: pIC50 (converted)).
Turning to `CC1(C)CC[C@]2(C(=O)O)CC[C@]3(C)C(=CC[C@@H]4[C@@]5(C)CC[C@H](OCc6ccccc6C(=O)O)C(C)(C)[C@@H]5CC[C@]43C)[C@@H]2C1`, the IC50 is 4580 nM (read-out: IC50) and 4580 nM (read-out: pIC50 (converted)).
Turning to `CC1(C)CC[C@]2(C(=O)Nc3ccc(C(=O)O)cc3)CC[C@]3(C)C(=CC[C@@H]4[C@@]5(C)CC[C@H](O)C(C)(C)[C@@H]5CC[C@]43C)[C@@H]2C1`, the IC50 is, setting by setting: (read-out: IC50) 3090 nM; (read-out: pIC50 (converted)) 3090 nM.
